“Also recorded” adds a separate entry of the source.
What was measured:
Type in all cases: cell-based, human
[1] = test system: neutrophil migration across confluent HMEC monolayers; experiment: TNF-α induced neutrophil migration across HMEC monolayers; conditions: HMECs; 24 h TNF-α 10 or 20 ng/ml; 100 nM, 1 h pretreatment
Method: FIG. 4 graphically depicts the effect of PMA on TNF-α induced neutrophil migration.
Turning now to FIG. 5, FIG. 5 graphically depicts the effect of Bryostatin-1 on TNF-α induced neutrophil migration.
Migration Assays: At confluency HMECs were treated for 1 h at 37° C. with Bryostatin-1 (10 nM, 100 nM) in MCDB-131 media or MCDB-131 media alone. Inserts were washed three times with Hank's Balanced Salt Solution (HBSS) (to eliminate drug effects on the neutrophils) and placed in a new plate containing either 500 μL 100 nM LTB4, or HBSS alone for control. 500 μL HBSS was then added to the top well and spiked with 500,000 neutrophils. For TNF-α experiments, HMECs were left in 20 ng/ml TNF-α in MCDB-131 for 24 h TNF-α was removed and HMECs washed three times. […] Migration was stopped by removing the inserts and migration was measured using the myeloperoxidase (MPO) assay.
Myeloperoxidase Assay: Neutrophil migration was measured using myeloperoxidase (MPO) analysis. […] The supernatant was removed, and MPO activity was measured using TMB/peroxide as chromogen. The reaction was stopped with sulfuric acid and absorbance was read at 450 nm using a microplate reader. […] Data was expressed as “% neutrophil migration”, which allowed cumulative statistical analysis to be done and account for unpreventable batch-to-batch variations.

[2] = test system: PKC-ε siRNA nucleofected HUVEC; experiment: LTB4 mediated neutrophil migration across PKC-ε siRNA nucleofected HUVEC; conditions: 1 h pretreatment; PKC-ε knockdown
Excerpt: Because studies in FIG. 8 could not discriminate between PKC-δ and […] isoforms mediating the effect of Bryostatin-1, we knocked down individual isoforms using siRNA technology. In order to verify that we could knock down particular isoforms of PKC, specifically PKC-8 and PKC-ε isoforms in HUVEC, siRNA which selectively bind to and eliminate human PKC-8 and PKC-ε mRNAs were nucleofected into HUVEC prior to migration studies. […] HUVEC cells treated using these approaches were then subjected to chemotaxis studies with Bryostatin-1 to elucidate the mechanism of Bryostatin-1 mediated inhibition of LTB4 induced PMN migration.
Neutrophil Transendothelial Migration (TEM) Restoration Studies: HUVECs were pretreated with Go-6983 (1, 10, 100 nM), or Go-6976 (1, 10,100 nM) for 30 minutes, then spiked with 100 nM Bryostatin-1 for 1 hour. […] Migration was stopped by removing the inserts and migration was measured using the MPO assay.
Myeloperoxidase Assay: Neutrophil migration was measured using myeloperoxidase (MPO) analysis. […] The supernatant was removed, and MPO activity was measured using TMB/peroxide as chromogen. The reaction was stopped with sulfuric acid and absorbance was read at 450 nm using a microplate reader. […] Data was expressed as “% neutrophil migration”, which allowed cumulative statistical analysis to be done and account for unpreventable batch-to-batch variations. […]

[3] = test system: neutrophil adhesion to the endothelial monolayer; experiment: LTB4 induced neutrophil adhesion to the endothelial monolayer; conditions: data not shown
Method: Turning now to FIG. 1, FIG. 1 graphically depicts neutrophil adhesion to and migration through human microvascular endothelial cell monolayers (HMECs) in a two-compartment system upon administration of an LTB4 gradient in the lower chamber over time. HMECs were plated on porous 8 μm (micron) transwell two-chamber inserts and allowed to reach confluency for migration assays. For the adhesion assay, HMECs were plated on 48-well plates. 100 nM LTB4 and 500,000 neutrophils were added to the upper compartment to initiate adhesion, while 500,000 neutrophils were added to the upper compartment and LTB4 to the lower compartment to initiate migration. Both neutrophil adhesion and migration were measured over 3 h and expressed as % change in adhesion and the fraction of migrated cells in chemoattractant stimulated experiments vs. controls which had no chemoattractant added. […]
Confluent HMEC monolayers were plated on 48-well plates for adhesion studies, transwells for migration studies, and pretreated with a variety of pharmacological inhibitors and activators for 1 hour. […] For adhesion assays, LTB4 was added along with 500,000 neutrophils and allowed to adhere for 1 h (time of max, adhesion as determined in FIG. 1). […] The data are shown as % change in migration and adhesion as assessed by MPO assay. All values are expressed as means+SE. […]

HMEC = experiment: Alamar blue endothelial viability assay, HMEC; conditions: single 1 h 100 nM treatment; 1, 24, 48 h
Method: (§1) Viability Assay. The Alamar blue assay was used to determine endothelial viability after pharmacological intervention. Alamar blue contains a REDOX indicator that results in a color change upon chemical reduction by cellular metabolic activity. Endothelial cells were treated with Bryostatin-1 (100 nM) for 1 h and washed three times with HBSS. Alamar blue (10%) in media was added for 2.5 h at T=0, 24, or 48 hours after drug treatment and the ratio of absorbances (570-600 nm) was measured to determine metabolic activity.

HUVEC = experiment: Alamar blue endothelial viability assay, HUVEC; conditions: for HUVEC viability at 48 h: 48 h after a single 1 h 100 nM treatment; for HUVEC viability at 1 and 24 h: single 1 h 100 nM treatment, 1, 24 h
Method: as §1

| SMILES | effect on TNF-α induced neutrophil TEM (Type II migration) [1] | effect on LTB4 mediated neutrophil migration in PKC-ε siRNA nucleofected HUVEC [2] | effect on LTB4 induced adhesion to the endothelial monolayer [3] | HMEC viability (HMEC) | HUVEC viability at 48 h (HUVEC) | HUVEC viability at 1 and 24 h (HUVEC) |
| --- | --- | --- | --- | --- | --- | --- |
| CCCCCCCCCCCCCC(=O)O[C@@H]1[C@@H](C)[C@@]2(O)[C@@H](C=C(CO)C[C@]3(O)C(=O)C(C)=C[C@@H]23)[C@@H]2C(C)(C)[C@]12OC(C)=O [PMA, phorbol myristate acetate] | attenuated Type II migration; also recorded: totally attenuated | did not restore LTB4 induced migration | Neither PMA, nor Bryostatin-1 reduced LTB4 induced adhesion | no effect | slight but significant reduction in viability | no effect |
| CCC/C=C/C=C/C(=O)O[C@H]1/C(=C/C(=O)OC)C[C@H]2C[C@H]([C@@H](C)O)OC(=O)C[C@H](O)C[C@@H]3C[C@H](OC(C)=O)C(C)(C)[C@](O)(C[C@@H]4C/C(=C/C(=O)OC)C[C@H](/C=C/C(C)(C)[C@]1(O)O2)O4)O3 [Bryostatin-1] | attenuated Type II migration; also recorded: totally attenuated | did not restore LTB4 induced migration; also recorded: still suppresses migration | Neither PMA, nor Bryostatin-1 reduced LTB4 induced adhesion | no effect | no effect | no effect |

From patent US20230139328A1, “DOSAGE FORMS FOR IMPROVING ORGAN TRANSPLANTATION, GRAFT VERSUS HOST DISEASE AND STEM CELLS TRANSPLANTS” (Aphios Corporation, priority 2020, published 2023)
